In patent publication US7655395B2, “Isolation and use of ryanodine receptors” (E.I. du Pont de Nemours and Company, priority 2002, dated 2010):

How the values were obtained:
[1] = tested on: native cockroach ryanodine receptors (in embryonic neuronal cells); assay: Calcium release assay, calcium imaging of embryonic cockroach neuronal cells (Fluo-4); assay type: cell-based, Periplaneta americana
Source text: Embryonic neuronal cultures of the American cockroach Periplaneta americana were established, with minor modifications, following the method of Beadle and Lees (1988) (in Cell Culture Approaches to Invertebrate Neuroscience, Academic Press, New York, pp 123-127). Briefly, 26-27-day old oothecae were collected, surface-sterilized and cut open along a line one-third of the distance below the dorsal midline. The heads were removed and placed in Schneider's Drosophila medium (Invitrogen Life Technologies™, Carlsbad, Calif.). Using fine forceps 40 brains were individually removed and placed in a small glass vial containing 700 μl of ‘5+4’ medium (‘5+4’ medium contained 5 parts Schneider's Drosophila medium plus 4 parts roach Basal Medium Eagle, with Earle's salts (BME, Sigma™, St. Louis, Mo.). Roach BME (with Earle's salts) contained 5 parts Hepes (1 M), 1 part penicillin/streptomycin and 44 parts BME (with Earle's salts). ‘5+4’ medium was made fresh and sterile filtered (0.2 μm filter) just prior to use). The brains were dissociated by sequential trituration as follows: 1) brains were passed through a standard Pasteur pipette 10 times; 2) the resulting tissue suspension was passed an additional 5 times through a Pasteur pipet with tip flamed to about half of its original diameter; 3) a final 5 passes were performed using a Pasteur pipet with tip flamed to slightly less than half of its original diameter. A repeat pipettor was used to dispense a 5 μl volume of the resulting suspension into the center of each well of a 96-well, glass-bottom plate previously coated with poly-L-lysine (0.2 mg/ml solution). Cells attached to the bottom of the wells during a 50 min incubation at 27-29° C. 150 ul of a 1:1 mixture of Leibovitz's L-15 medium and Yunker's modified Grace's medium was added, and plates were maintained in a humid incubator at 27-29° C. until use. After cells were allowed to attach wells were filled with a 1:1 mixture of Leibovitz's L-15 medium and Yunker's modified Grace's medium (Leibovitz's L-15 and Grace's medium were obtained from Invitrogen Life Technologies™, Carlsbad, Calif. and Yunker's modified Grace's medium was made with Grace's medium modified by addition of 5 mg L-methionine, 10 mg L-alanine, 182 mg MgCl2.6H20, 1 g Albumin Fraction V, 7 ml Fetal bovine serum, 10 ml Chick embryo extract, 2 ml Penicillin/Streptomycin, and 2 mg 20-hydroxyecdysone (prepared in ethanol prior to addition) to a final volume of 100 ml and sterile filtered (0.2 μm filter)). Cells were maintained in a high humidity incubator at 29° C. until testing.
The calcium imaging and acquisition protocols using roach neuronal cells is as follows:
Cells were rinsed in standard physiological saline having the following composition (mM): NaCl 190; CaCl2 9; KCl 3.1; probenicid 1; Tris buffer 10; pH 7.2. Cells were then bathed in standard physiological saline containing the calcium sensitive fluoroprobe Fluo-4 AM (2 μM) and Pluronic F127 (0.002%) for 45 min. Cells were then rinsed in standard physiological saline for at least 15 min prior to testing. Within the hour prior to testing, standard physiological saline was replaced with standard physiological saline containing the organic cation channel blocker pimozide (10 μM), to inhibit influx of external calcium through voltage-gated calcium channels. The 96-well plate was placed on a Prior™ motorized stage mounted onto a Nikon Diaphot microscope and imaged using a 20× Fluor objective (NA 0.75). Individual wells from the 96-well plate were sequentially excited with light at 495 nm, and the emitted fluorescence at 530 nm was detected using a Hamamatsu ORCA ER digital camera with 2 pixel binning (image size 672×512 pixels).
Acquisition control, image processing and image analysis were conducted using Universal Imaging Corporation's MetaMorph™ imaging software (Universal Imaging, West Chester, Pa.). A series of 3 “control” images were acquired for each well. […]

[2] = molecular target: T1, recombinant Drosophila melanogaster ryanodine receptors (expressed in Sf9 cells) (Drosophila melanogaster, UniProt Q24498); assay type: cell-based; conditions: receptor expressed in Sf9 cells
T1 construct: expressed in transfected cells
Protocol: The Spodoptera frugiperda cell line Sf9 used for transfection studies, was maintained in Sf-900 II SFM medium (Invitrogen Life Technologies™, Carlsbad, Calif.) in T-75 flasks incubated at 27° C. It is understood that those skilled in the art might choose alternative cell types such as the Spodoptera frugiperda cell line Sf21 or the Drosophila cell line S2. For the purpose of general handling and propagation, cells were suspended through scraping or agitation and a volume of cell suspension was added to each well of a poly-L-lysine coated 96-well, glass-bottom plate so as to provide 70-80% confluence. Cells were maintained in an incubator at 27° C. until testing.
SF900-II media was used to bring the final volume in the dish to 2 ml and the cells were incubated at 27 degrees C. for 21 h. Following the incubation the media was aspirated from the dish and replaced with 1 ml of SF900-II media pre-warmed to 27 degrees C.
The transient transfection was carried out following an InsectSelect BSD System manual (Invitrogen Life Technologies™, Carlsbad, Calif.). […] The transfection was accomplished by adding the transfection solution drop-wise to the dish and incubating 4 h at room temperature with gentle rocking. […]
Several drops of a suspension of recombinant Spodoptera frugiperda cell line, Sf9, transiently expressing insect ryanodine receptors were placed on a poly-L-lysine-coated coverslip and allowed to attach. Cells were then rinsed in physiological saline having the following composition (mM): NaCl 130; KCl 5.4; MgCl2 1.2; CaCl2 1.0; NaHCO3 4.2; NaH2P04 7.3; Glucose 10; Sucrose 63; MES 20; pH 6.3. Cells were then bathed in physiological saline containing the calcium sensitive fluoroprobe, Fura-2 AM (2 μM), and Pluronic F127 (0.002%) for 30 min. Cells were rinsed in standard physiological saline for at least 15 min prior to testing. Testing was conducted in standard physiological saline, as the cell lines are devoid of functional voltage-gated calcium channels.
Cell-attached coverslips were placed in a sealed chamber with physiological saline continuously perfused across the cells using a peristaltic pump. Test compounds solubilized in physiological saline were applied by switching the perfusate source.
For studies involving the stable recombinant Spodoptera frugiperda cell line, Sf9, (other cell lines could also be used such as Sf21, S2, etc) expressing an insect ryanodine receptor from Drosophila melanogaster, or Heliothis virescens (alternatively receptors from other species such as Myzus persicae, Peregrinus maidis, Aphis gossypii, etc) were grown in T75 (or other appropriate sized) flasks in supplemented Grace's insect medium. Cells were maintained in an incubator at 22° C. until testing. Cells were suspension-loaded with the calcium sensitive fluoroprobe, Fura-2 AM (1-2 μM) and Pluronic F127 (0.002%) in culture medium for 30 minutes under agitation. Cells were then centrifuged and the pellet resuspended in physiological saline having the following composition (mM): NaCl 130; KCl 5.4; MgCl2 1.2; CaCl2 1.0; NaHCO3 4.2; NaH2P04 7.3; Glucose 10; Sucrose 63; MES 20; pH 6.3 at approximately 150,000-200,000 cells per well (96-well plate). After a 30 minute equilibration period the cell plate was tested using a Molecular Devices' FlexStation™ system with dual wavelength excitation (340 and 380 nm) and fluorescence emission measured at 510 nm. Test and control samples were added using integrated fluidics and the intracellular calcium monitored over a 2 minute period.

## Cn1c(=O)c2c(ncn2C)n(C)c1=O [Caffeine, reference compound]
[1]; Table 6, result in words
  Calcium Release (P. americana): Agonist

## CNC(=O)c1cc(Cl)cc(C)c1NC(=O)c1cc(Br)nn1-c1ncccc1Cl [Cpd 14]
[2]
  Calcium Release Threshold (nM) D. melanogaster: <300 nM
[1]
  Calcium Release Threshold (nM) P. americana: <300 nM
